From US20250288647A1, “ANGIOGENESIS INHIBITING PEPTIDE AND USE THEREOF” (SEOUL NATIONAL UNIVERSITY HOSPITAL, priority 2021, published 2025)
Values belong to the molecule of their own block, whether it stands above or below them.

Experiments:
PDGF receptor [1] = experiment: Real-time degree of binding using BLtz instrument (ForteBio); conditions: FIGS. 2A to 2I
From the text: (§1) FIG. 2 is a view showing the results of confirming the degree of binding of the peptides using BLtz system according to an exemplary embodiment of the present invention to a VEGF receptor and a PDGF receptor. FIG. 2A is a view showing the results of Peptides 1 to 3, FIG. 2B is a view showing the results of Peptide 8, FIG. 2C is a view showing the results of Peptide 9, FIG. 2D is a view showing the results of Peptide 10, FIG. 2E is a view showing the results of Peptide 11, FIG. 2F is a view showing the results of Peptide 12, FIG. 2G is a view showing the results of Peptide 13, FIG. 2H is a view showing the results of Peptide 14, and FIG. 2I is a view showing the results of Peptide 15.
(§2) In addition, the degree of binding between the peptides and the receptors was confirmed in real time using a BLtz instrument (ForteBio).

VEGF receptor [2] = experiment: as above; conditions: FIGS. 2A to 2I
From the text: as §1, §2

PDGF receptor [3] = experiment: Surface plasmon resonance (SPR) binding test, Biacore T200; conditions: PDGF receptor 400 ng/ml, CM5 chip
Procedure: (§3) It was confirmed that the prepared peptides have binding affinity to VEGF receptors and PDGF receptors using surface plasmon resonance (SPR). More specifically, SPR was performed using a Biacore T200 (GE Healthcare) device and a CM5 chip (GE Healthcare, Cat #. BR-1005-30), and the obtained results were analyzed using BIAevaluation software version 3.0 (GE Healthcare). For a binding test, a concentration of 200 ng/mL was used for the VEGF receptor and a concentration of 400 ng/ml was used for the PDGF receptor.

VEGF receptor [4] = experiment: as above; conditions: VEGF receptor 200 ng/mL, CM5 chip
Procedure: as §3

[5] = test system: mice with oxygen-induced retinopathy; experiment: Oxygen-induced retinopathy mice, intravitreal injection, isolectin staining, area of neovascular tufts; assay type: in vivo; conditions: 1 μL intravitreal, right eye, 5 days after injection, FIGS. 5 and 6
Procedure: Two days later, for the prepared mice with retinopathy, 1 μL of phosphate buffer solution, Peptide 1, Peptide 4, and KAI1 protein (CD82), which is known to bind to VEGF and PDGF, were intravitreally injected to the right eye of each of the mice, respectively. Mice were euthanized 5 days after injection and enucleated eyes were prepared. The prepared enucleated eye was immunostained using 5 μg/mL Alexa Fluor 594 isolectin GS-IB4 conjugate (Invitrogen), and then observed using a fluorescence microscope. Thereafter, the area of neovascular tufts was quantified as a percentage of the total retina using Image J (NIH).

CD31 = CD31 staining of cancer tissue sections (angiogenesis in cancer tissue); assay type: in vivo, NSG mice; conditions: tissue sections of cancer tissue obtained at 14 days, FIG. 4
Procedure: (§4) As a control, an equal amount of phosphate buffered saline (PBS) was mixed with Matrigel and injected. After the mice were euthanized 14 days later, cancer tissue was obtained and the size of cancer was measured. All animal handling and procedures were performed in accordance with research protocols approved by the Animal Care and Use Committee of Seoul National University Hospital. Thereafter, in all experiments, statistical significance between two groups was confirmed by a Student's t-test, and when P<0.05, it was determined to be statistically significant. Then, the obtained cancer tissue was fixed using a 4% paraformaldehyde solution, embedded using paraffin, and then cut to a thickness of […] to prepare a tissue section. The prepared tissue section was then stained using a CD31 antibody (Abcam) that specifically binds to CD31, a blood vessel-specific gene, and DAPI.

[6] = test system: MDA-MB-231 breast cancer cell line; experiment: Anticancer effect: MDA-MB-231 cells mixed with peptide and Matrigel injected subcutaneously, size of cancer; assay type: in vivo, NSG mice; conditions: 14 days after subcutaneous injection with 2×10^6 MDA-MB-231 cells and Matrigel, compared to PBS control, FIG. 3
Procedure: as §4

degree of binding to the PDGF receptor (BLtz) (PDGF receptor [1]): weak binding affinity
degree of binding to the VEGF receptor (BLtz) (VEGF receptor [2]): weak binding affinity
binding to the PDGF receptor (SPR) (PDGF receptor [3]): bound weakly
binding to the VEGF receptor (SPR) (VEGF receptor [4]): bound weakly
Molecule: NRPEVTAPASCEVKGEEDNS [Peptide 2]

Molecule: NRPEVTYPCSCEVKGEEDNS [Peptide 1]
angiogenesis inhibitory effect in retinopathy (area of neovascular tufts as percentage of total retina) [5]: angiogenesis inhibitory effect similar to that of the comparative group administered the KAI1 protein
CD31 antibody staining (fluorescence intensity) in cancer tissue (CD31): almost no portion stained with a CD31 antibody
size of cancer [6]: size of cancer was inhibited compared to the control
degree of binding to the PDGF receptor (BLtz) (PDGF receptor [1]): highest binding affinity
degree of binding to the VEGF receptor (BLtz) (VEGF receptor [2]): highest binding affinity
binding to the PDGF receptor (SPR) (PDGF receptor [3]): bound strongly
binding to the VEGF receptor (SPR) (VEGF receptor [4]): bound strongly

Molecule: NRPEVTAPASCEVKGAAANS [Peptide 4]
angiogenesis inhibitory effect in retinopathy (area of neovascular tufts as percentage of total retina) [5]: did not show an angiogenesis inhibitory effect
CD31 antibody staining (fluorescence intensity) in cancer tissue (CD31): remarkably high
size of cancer [6]: size of cancer was remarkably increased

degree of binding to the PDGF receptor (BLtz) (PDGF receptor [1]): stably bound
degree of binding to the VEGF receptor (BLtz) (VEGF receptor [2]): stably bound
binding to the PDGF receptor (SPR) (PDGF receptor [3]): bound strongly
binding to the VEGF receptor (SPR) (VEGF receptor [4]): bound strongly
Molecule: NHPEDWPVYQEGC [Peptide 15]

degree of binding to the PDGF receptor (BLtz) (PDGF receptor [1]): weak binding affinity
degree of binding to the VEGF receptor (BLtz) (VEGF receptor [2]): weak binding affinity
Molecule: NRPEVTYPCSCEVKGAAANS [Peptide 3]

degree of binding to the PDGF receptor (BLtz) (PDGF receptor [1]): stably bound
degree of binding to the VEGF receptor (BLtz) (VEGF receptor [2]): stably bound
binding to the PDGF receptor (SPR) (PDGF receptor [3]): bound strongly
binding to the VEGF receptor (SPR) (VEGF receptor [4]): bound strongly
Molecule: SFYNWTDNAELMN [Peptide 9]

B1: KAI1 protein: KAI1 protein (CD82), which is known to bind to VEGF and PDGF; comparative group (protein, UniProt P27701 1-267, looked up)
CD82 antigen: MGSACIKVTKYFLFLFNLIFFILGAVILGFGVWILADKSSFISVLQTSSSSLRMGAYVFIGVGAVTMLMGFLGCIGAVNEVRCLLGLYFAFLLLILIAQVTAGALFYFNMGKLKQEMGGIVTELIRDYNSSREDSLQDAWDYVQAQVKCCGWVSFYNWTDNAELMNRPEVTYPCSCEVKGEEDNSLSVRKGFCEAPGNRTQSGNHPEDWPVYQEGCMEKVQAWLQENLGIILGVGVGVAIIELLGMVLSICLCRHVHSEDYSKVPKY
angiogenesis inhibitory effect in retinopathy (area of neovascular tufts as percentage of total retina) [5]: angiogenesis inhibitory effect
